# Structures can show the parent of a compound that is named as a salt. Where two headings read alike, the source gives them in different places.
# Tests used:
# [1] = system: super sensitive Gram-negative Escherichia coli (E. coli) BAS849; experiment: Antibacterial activity, microbroth dilution MIC, E. coli BAS849; format: cell-based; conditions: Escherichia coli, read-out: MIC, BAS849
# [2] = system: control Gram-negative E. coli 25922 strain; experiment: Antibacterial activity, microbroth dilution MIC, E. coli 25922; format: cell-based, Escherichia coli; conditions: Escherichia coli; E. coli 25922, microbroth dilution; read-out: MIC, 25922
# [3] = system: Gram-positive Staphylococcus aureus (S. aureus) 29213; experiment: Antibacterial activity, microbroth dilution MIC, S. aureus 29213; format: cell-based; conditions: Staphylococcus aureus; S. aureus 29213, microbroth dilution; read-out: MIC, 29213
# [4] = E. coli BAS849, microbroth dilution
smiles,measurement,setting,value
"CCc1c(-c2ccc(N(C)C)c(OC)c2)[nH]c(=O)c(C(=O)O)c1O [Cpd 65, 6-[4-(dimethylamino)-3-methoxyphenyl]-5-ethyl-4-hydroxy-2-oxo-1,2-dihydropyridine-3-carboxylic acid]",MIC,[1]; [4],3.5 to 12.5 µg/mL
same,MIC,[2],12.5 to 150 µg/mL
same,MIC,[3],12.5 to 150 µg/mL
"CCc1cc(C(=O)O)c(=O)[nH]c1-c1ccc(N2CCCC2)c(OC)c1 [Cpd 66, 5-ethyl-6-[3-methoxy-4-(pyrrolidin-1-yl)phenyl]-2-oxo-1,2-dihydropyridine-3-carboxylic acid]",MIC,[1]; [4],3.5 to 12.5 µg/mL
same,MIC,[2],12.5 to 150 µg/mL
same,MIC,[3],12.5 to 150 µg/mL
"CCc1c(-c2ccc(N3CCCC3)c(OC)c2)[nH]c(=O)c(C(=O)O)c1O [Cpd 67, 5-ethyl-4-hydroxy-6-[3-methoxy-4-(pyrrolidin-1-yl)phenyl]-2-oxo-1,2-dihydropyridine-3-carboxylic acid]",MIC,[1]; [4],3.5 to 12.5 µg/mL
same,MIC,[2],12.5 to 150 µg/mL
same,MIC,[3],1 to 3.5 µg/mL
"CCc1c(-c2ccc(N3CCCCC3)c(OC)c2)[nH]c(=O)c(C(=O)O)c1O [Cpd 69, 5-ethyl-4-hydroxy-6-[3-methoxy-4-(piperidin-1-yl)phenyl]-2-oxo-1,2-dihydropyridine-3-carboxylic acid]",MIC,[1]; [4],3.5 to 12.5 µg/mL
same,MIC,[2],12.5 to 150 µg/mL
same,MIC,[3],3.5 to 12.5 µg/mL
"CCc1cc(C(=O)O)c(=O)[nH]c1-c1ccc(N2CCCC2)c(C)c1 [Cpd 70, 5-ethyl-6-[3-methyl-4-(pyrrolidin-1-yl)phenyl]-2-oxo-1,2-dihydropyridine-3-carboxylic acid]",MIC,[1]; [4],< 1 µg/mL
same,MIC,[2],12.5 to 150 µg/mL
same,MIC,[3],12.5 to 150 µg/mL
"CCc1c(-c2ccc(N3CCCC3)c(C)c2)[nH]c(=O)c(C(=O)O)c1O [Cpd 71, 5-ethyl-4-hydroxy-6-[3-methyl-4-(pyrrolidin-1-yl)phenyl]-2-oxo-1,2-dihydropyridine-3-carboxylic acid]",MIC,[1]; [4],1 to 3.5 µg/mL
same,MIC,[2],12.5 to 150 µg/mL
same,MIC,[3],3.5 to 12.5 µg/mL
"CCc1cc(C(=O)O)c(=O)[nH]c1-c1ccc(N2CCCCC2)c(C)c1 [Cpd 72, 5-ethyl-6-[3-methyl-4-(piperidin-1-yl)phenyl]-2-oxo-1,2-dihydropyridine-3-carboxylic acid]",MIC,[1]; [4],3.5 to 12.5 µg/mL
same,MIC,[2],12.5 to 150 µg/mL
same,MIC,[3],12.5 to 150 µg/mL
"CCc1c(-c2ccc(N3CCCCC3)c(C)c2)[nH]c(=O)c(C(=O)O)c1O [Cpd 73, 5-ethyl-4-hydroxy-6-[3-methyl-4-(piperidin-1-yl)phenyl]-2-oxo-1,2-dihydropyridine-3-carboxylic acid]",MIC,[1]; [4],3.5 to 12.5 µg/mL
same,MIC,[2],12.5 to 150 µg/mL
same,MIC,[3],3.5 to 12.5 µg/mL
"CCc1c(-c2ccc(F)cc2)[nH]c(=O)c(C(=O)O)c1O [Cpd 74, 5-ethyl-6-(4-fluorophenyl)-4-hydroxy-2-oxo-1,2-dihydropyridine-3-carboxylic acid]",MIC,[1]; [4],3.5 to 12.5 µg/mL
same,MIC,[2],12.5 to 150 µg/mL
same,MIC,[3],12.5 to 150 µg/mL
"CCc1cc(C(=O)O)c(=O)[nH]c1-c1ccc(Cl)cc1 [Cpd 76, 6-(4-chlorophenyl)-5-ethyl-2-oxo-1,2-dihydropyridine-3-carboxylic acid]",MIC,[1]; [4],12.5 to 150 µg/mL
same,MIC,[2],12.5 to 150 µg/mL
same,MIC,[3],12.5 to 150 µg/mL
"CCc1c(-c2ccc(Cl)cc2)[nH]c(=O)c(C(=O)O)c1O [Cpd 77, 6-(4-chlorophenyl)-5-ethyl-4-hydroxy-2-oxo-1,2-dihydropyridine-3-carboxylic acid]",MIC,[1]; [4],1 to 3.5 µg/mL
same,MIC,[2],12.5 to 150 µg/mL
same,MIC,[3],3.5 to 12.5 µg/mL
"CCc1cc(C(=O)O)c(=O)[nH]c1-c1ccc(Br)cc1 [Cpd 78, 6-(4-bromophenyl)-5-ethyl-2-oxo-1,2-dihydropyridine-3-carboxylic acid]",MIC,[1]; [4],3.5 to 12.5 µg/mL
same,MIC,[2],12.5 to 150 µg/mL
same,MIC,[3],12.5 to 150 µg/mL
"CCc1c(-c2ccc(Br)cc2)[nH]c(=O)c(C(=O)O)c1O [Cpd 79, 6-(4-bromophenyl)-5-ethyl-4-hydroxy-2-oxo-1,2-dihydropyridine-3-carboxylic acid]",MIC,[1]; [4],< 1 µg/mL
same,MIC,[2],12.5 to 150 µg/mL
same,MIC,[3],3.5 to 12.5 µg/mL
"CCc1cc(C(=O)O)c(=O)[nH]c1-c1ccc(I)cc1 [Cpd 80, 5-ethyl-6-(4-iodophenyl)-2-oxo-1,2-dihydropyridine-3-carboxylic acid]",MIC,[1]; [4],3.5 to 12.5 µg/mL
same,MIC,[2],12.5 to 150 µg/mL
same,MIC,[3],12.5 to 150 µg/mL
"CCc1c(-c2ccc(I)cc2)[nH]c(=O)c(C(=O)O)c1O [Cpd 81, 5-ethyl-4-hydroxy-6-(4-iodophenyl)-2-oxo-1,2-dihydropyridine-3-carboxylic acid]",MIC,[1]; [4],1 to 3.5 µg/mL
same,MIC,[2],12.5 to 150 µg/mL
same,MIC,[3],3.5 to 12.5 µg/mL
"CCc1cc(C(=O)O)c(=O)[nH]c1-c1ccc(N2CC3(CCCCC3)CC2=O)cc1 [Cpd 118, 5-ethyl-2-oxo-6-[4-(3-oxo-2-azaspiro[4.5]dec-2-yl)phenyl]-1,2-dihydropyridine-3-carboxylic acid]",MIC,[1]; [4],3.5 to 12.5 µg/mL
same,MIC,[2],12.5 to 150 µg/mL
same,MIC,[3],12.5 to 150 µg/mL
"CCc1cc(C(=O)O)c(=O)[nH]c1-c1ccc(N2C(=O)C3C=CC2C3)cc1 (stereo not drawn) [Cpd 119, 5-ethyl-2-oxo-6-[4-(3-oxo-2-azabicyclo[2.2.1]hept-5-en-2-yl)phenyl]-1,2-dihydropyridine-3-carboxylic acid]",MIC,[1]; [4],1 to 3.5 µg/mL
same,MIC,[2],12.5 to 150 µg/mL
same,MIC,[3],12.5 to 150 µg/mL
"CCc1cc(C(=O)O)c(=O)[nH]c1-c1ccc(N2CC(OC3CCCCO3)C2)cc1 (stereo not drawn) [Cpd 120, 5-ethyl-2-oxo-6-{4-[3-(tetrahydro-2H-pyran-2-yloxy)azetidin-1-yl]phenyl}-1,2-dihydropyridine-3-carboxylic acid]",MIC,[1]; [4],< 1 µg/mL
same,MIC,[2],12.5 to 150 µg/mL
same,MIC,[3],12.5 to 150 µg/mL
"CCc1cc(C(=O)O)c(=O)[nH]c1-c1ccc(N2CCC[C@@H](O)C2)cc1 [Cpd 122, 5-ethyl-6-{4-[(3R)-3-hydroxypiperidin-1-yl]phenyl}-2-oxo-1,2-dihydropyridine-3-carboxylic acid]",MIC,[1]; [4],< 1 µg/mL
same,MIC,[2],3.5 to 12.5 µg/mL
same,MIC,[3],12.5 to 150 µg/mL
"CCc1c(-c2ccc(N3CCC[C@@H](O)C3)cc2)[nH]c(=O)c(C(=O)O)c1O [Cpd 125, 5-ethyl-4-hydroxy-6-{4-[(3R)-3-hydroxypiperidin-1-yl]phenyl}-2-oxo-1,2-dihydropyridine-3-carboxylic acid]",MIC,[1]; [4],< 1 µg/mL
same,MIC,[2],3.5 to 12.5 µg/mL
same,MIC,[3],12.5 to 150 µg/mL
"CCc1cc(C(=O)OC)c(=O)[nH]c1-c1ccc(N2CCC(OCc3ccccc3)C2)cc1 (stereo not drawn) [Cpd 127, methyl 6-{4-[3-(benzyloxy)pyrrolidin-1-yl]phenyl}-5-ethyl-2-oxo-1,2-dihydropyridine-3-carboxylate]",MIC,[1]; [4],12.5 to 150 µg/mL
same,MIC,[2],12.5 to 150 µg/mL
same,MIC,[3],12.5 to 150 µg/mL
"CCc1cc(C(=O)O)c(=O)[nH]c1-c1ccc(N2C[C@@H](N)[C@H](O)C2)cc1.Cl [Cpd 133, 6-{4-[(3R,4R)-3-amino-4-hydroxypyrrolidin-1-yl]phenyl}-5-ethyl-2-oxo-1,2-dihydropyridine-3-carboxylic acid hydrochloride]",MIC,[1]; [4],1 to 3.5 µg/mL
same,MIC,[2],12.5 to 150 µg/mL
same,MIC,[3],12.5 to 150 µg/mL
"CCc1cc(C(=O)O)c(=O)[nH]c1-c1ccc(N2CC3CC2CN3C(=O)OC(C)(C)C)cc1 (stereo not drawn) [Cpd 137, 6-{4-[5-(tert-butoxycarbonyl)-2,5-diazabicyclo[2.2.1]hept-2-yl]phenyl}-5-ethyl-2-oxo-1,2-dihydropyridine-3-carboxylic acid]",MIC,[1],< 1 µg/mL
same,MIC,[2],12.5 to 150 µg/mL
same,MIC,[3],12.5 to 150 µg/mL
"CCc1cc(C(=O)O)c(=O)[nH]c1-c1ccc(N2CCC[C@H]2CN2CCCC2)cc1.O=C(O)C(F)(F)F [Cpd 143, 5-ethyl-2-oxo-6-{4-[(2S)-2-(pyrrolidin-1-ylmethyl)pyrrolidin-1-yl]phenyl}-1,2-dihydropyridine-3-carboxylic acid trifluoroacetate]",MIC,[1],3.5 to 12.5 µg/mL
same,MIC,[2],12.5 to 150 µg/mL
same,MIC,[3],12.5 to 150 µg/mL
"CCc1cc(C(=O)O)c(=O)[nH]c1-c1ccc(N2Cc3ccccc3C2)cc1 [Cpd 162, 6-[4-(1,3-dihydro-2H-isoindol-2-yl)phenyl]-5-ethyl-2-oxo-1,2-dihydropyridine-3-carboxylic acid]",MIC,[1]; [4],3.5 to 12.5 µg/mL
same,MIC,[2],12.5 to 150 µg/mL
same,MIC,[3],12.5 to 150 µg/mL
"CCc1cc(C(=O)O)c(=O)[nH]c1-c1ccc(N2CC(N)C2)cc1 [Cpd 170, 6-[4-(3-aminoazetidin-1-yl)phenyl]-5-ethyl-2-oxo-1,2-dihydropyridine-3-carboxylic acid]",MIC,[1]; [4],12.5 to 150 µg/mL
same,MIC,[2],12.5 to 150 µg/mL
same,MIC,[3],12.5 to 150 µg/mL
"CCc1cc(C(=O)O)c(=O)[nH]c1-c1ccc(N2CC(NC(=O)OCc3ccccc3)C2)cc1 [Cpd 171, 6-[4-(3-{[(benzyloxy)carbonyl]amino}azetidin-1-yl)phenyl]-5-ethyl-2-oxo-1,2-dihydropyridine-3-carboxylic acid]",MIC,[1]; [4],3.5 to 12.5 µg/mL
same,MIC,[2],12.5 to 150 µg/mL
same,MIC,[3],12.5 to 150 µg/mL
"CCc1cc(C(=O)O)c(=O)[nH]c1-c1ccc(N2CCC(N(CC)CC)C2)cc1.O=C(O)C(F)(F)F (stereo not drawn) [Cpd 172, 6-{4-[3-(diethylamino)pyrrolidin-1-yl]phenyl}-5-ethyl-2-oxo-1,2-dihydropyridine-3-carboxylic acid trifluoroacetate]",MIC,[1],< 1 µg/mL
same,MIC,[2],3.5 to 12.5 µg/mL
same,MIC,[3],12.5 to 150 µg/mL
"CCc1cc(C(=O)O)c(=O)[nH]c1-c1ccc(N2C[C@@H]3[C@H](C2)[C@H]3N(Cc2ccccc2)Cc2ccccc2)cc1 [Cpd 176, 6-{4-[(1R,5S,6s)-6-(dibenzylamino)-3-azabicyclo[3.1.0]hex-3-yl]phenyl}-5-ethyl-2-oxo-1,2-dihydropyridine-3-carboxylic acid hydrochloride]",MIC,[1]; [4],12.5 to 150 µg/mL
same,MIC,[2],12.5 to 150 µg/mL
same,MIC,[3],12.5 to 150 µg/mL
"CCc1cc(C(=O)O)c(=O)[nH]c1-c1ccc(N2CC3OCCN(Cc4ccccc4)C3C2)cc1.O=C(O)C(F)(F)F (stereo not drawn) [Cpd 180, 6-[4-(4-benzylhexahydropyrrolo[3,4-b][1,4]oxazin-6(2H)-yl)phenyl]-5-ethyl-2-oxo-1,2-dihydropyridine-3-carboxylic acid trifluoroacetate]",MIC,[1],1 to 3.5 µg/mL
same,MIC,[2],12.5 to 150 µg/mL
same,MIC,[3],12.5 to 150 µg/mL
"CCc1cc(C(=O)O)c(=O)[nH]c1-c1ccc(N2CCC(CN(Cc3ccccc3)Cc3ccccc3)C2)cc1.O=C(O)C(F)(F)F (stereo not drawn) [Cpd 181, 6-(4-{3-[(dibenzylamino)methyl]pyrrolidin-1-yl}phenyl)-5-ethyl-2-oxo-1,2-dihydropyridine-3-carboxylic acid trifluoroacetate]",MIC,[1],3.5 to 12.5 µg/mL
same,MIC,[2],12.5 to 150 µg/mL
same,MIC,[3],12.5 to 150 µg/mL
